# “Also recorded” adds a separate entry of the source.
# Key:
# [1] = test system: normal dermal fibroblasts; test: Effect on normal dermal fibroblasts; format: cell-based; settings: single agent; compared with HCT116 cells
# [2] = test system: MDA-MB-435P cells; test: MTS monolayer proliferation assay, drug combinations analysed with CalcuSyn; format: cell-based, human; settings: in combination with adriamycin
# Excerpt: (§1) MTS (which is 3-(4,5 Dimethylthiazol-2-yl)-5-(3-carboxyphenyl)-2-(4-sulfophenyl)-2H-tetrazolium, inner salt) assays are used to assess the antiproliferative effects of the drug combinations. The HCT116 and MDA-MB-435P tumor cell lines, previously characterized as sensitive to HDA inhibitors, are chosen for these experiments along with clinically relevant chemotherapeutic drugs. A commercial program, “CalcuSyn”, is employed to determine whether the combined effects are synergistic, antagonistic or additive.
# (§2) Two cell lines, the HCT116 human colon carcinoma cells and MDA-MB-435P, a hormone independent breast carcinoma cell line, are chosen based on their sensitivity to HDAI. Chemotherapeutic agents are paired with the cell lines based on their clinical relevance. The compounds tested in combination with N-hydroxy-3-[4-[[(2-hydroxyethyl)[2-(1H-indol-3-yl)ethyl]-amino]methyl]phenyl]-2E-2-propenamide include adriamycin which is clinically used in the treatment of breast cancer, 5-fluoruracil (5-FU), and camptothecin, used clinically for colon cancer. Due to the reported cross-talk between histone deacetylases and DNA methyl transferases, 5-azacytidine, a DNA methyltransferase inhibitor, is also tested.
# Human breast carcinoma cells, MDA-MB-435P are cultured as previously described in the reference above. Cell proliferation is measured using an adaptation of published procedures essentially as described, in Zhang R D, Fidler I J, Price J E, “Relative malignant potential of human breast carcinoma cell lines established from pleural effusions and a brain metastasis”, Invasion-Metastasis 1991; 11 :204-15.
# Experiments are done using five-point or six-point drug titrations in 96-well tissue culture plates, with the top row left empty. HCT116 and MDA-MB-435P cells are suspended in complete media at a density of 3.6×10^3 and 2.1×10^4 cell/ml, respectively, and 190 μl are added per well. Complete medium (200 μl) is added to the top row. 24 hours later, after the cells have attached to the bottom of the plate, 10 μl of MTS solution are added to one of the plates to determine the activity at the time of compound addition (T0). The plate is incubated at 37° C. for 4 hours and the OD is measured on a Molecular Devices Thermomax at 490 nm using the Softmax program. The T0 plate serves as a reference for initial activity at the beginning of the experiment. Compound addition begins 24 hours after seeding, the same time as the T0 determination. […] One cell line is tested with four compounds or combinations per plate. 10 microliters of each of the six dilutions are added in triplicate and complete medium is added to the bottom row. The compounds are added to the plates singly or in combination with N-hydroxy-3-[4-[[(2-hydroxyethyl)[2-(1H-indol-3-yl)ethyl]-amino]methyl]phenyl]-2E-2-propenamide. In pretreated combinations, the drugs are added simultaneously, 24 hr prior, or 24 hr after N-hydroxy-3-[4-[[(2-hydroxyethyl)[2-(1H-indol-3-yl)ethyl]-amino]methyl]phenyl]-2E-2-propenamide. As controls for pretreatment, new dilutions are added to untreated cells singly or in combination 48 hours after seeding.
# The plates are incubated at 37° C. for 72 hours from seeding. The MTS solution is added (as for the T0 plate) and read four hours later. In order to analyze the data, the average value of media alone (background) is subtracted from each experimental well and the triplicate values are averaged for each compound dilution. The following formulas are used to calculate percent growth.
# The “% Growth” is plotted against compound concentration and used to calculate IC50s employing the user-defined spline function in Microsoft Excel. This function uses linear regression between data points to predict the concentration of compounds at 50% inhibition. IC50s are used to determine the dose range for each compound and the resultant combinations.
# (§3) Using the CalcuSyn program, the Combination Index (CI) is determined by the isobologram equation CI=(D)1/(Dx)1+(D)2/(Dx)2. […]
# [3] = test system: HCT116 colon carcinoma xenograft; test: HCT116 colon carcinoma xenograft model; format: in vivo, athymic mice; settings: single daily intravenous doses 10 to 100 mg/kg
# [4] = test system: cell growth; test: Inhibition of cell growth in vitro; format: cell-based; settings: single agent
# [5] = test system: MDA-M B-435P breast carcinoma xenograft; test: MDA-MB-435P breast carcinoma xenograft model; format: in vivo; settings: MDA-MB-435P breast xenograft; single daily intravenous doses 10 to 100 mg/kg
# [6] = test system: HCT116 cells; test: MTS monolayer proliferation assay, drug combinations analysed with CalcuSyn; format: cell-based, human
# Excerpt: as §1
# Two cell lines, the HCT116 human colon carcinoma cells and MDA-MB-435P, a hormone independent breast carcinoma cell line, are chosen based on their sensitivity to HDAI. Chemotherapeutic agents are paired with the cell lines based on their clinical relevance. […]
# (§4) Experiments are done using five-point or six-point drug titrations in 96-well tissue culture plates, with the top row left empty. […] The plate is incubated at 37° C. for 4 hours and the OD is measured on a Molecular Devices Thermomax at 490 nm using the Softmax program. […]
# (§5) The plates are incubated at 37° C. for 72 hours from seeding. The MTS solution is added (as for the T0 plate) and read four hours later. […]
# as §3
# [7] = test system: histone acetylation (intracellular HDA); test: Histone acetylation in cells treated in culture; format: cell-based, human
# [8] = test system: acetylated histone H3 and H4; test: Acetylated histone levels in HCT116 human tumor xenografts; settings: in vivo, HCT116 human tumor xenografts from athymic mice
# Excerpt: The compound also increases acetylated histone H3 and H4 levels in vivo, in HCT116 human tumor xenografts from athymic mice. In this example, the effects of combining N-hydroxy-3-[4-[[(2-hydroxyethyl)[2-(1H-indol-3-yl)ethyl]-amino]methyl]phenyl]-2E-2-propenamide with standard therapeutics or with other experimental drugs on monolayer proliferation of tumor cell lines are investigated.
# [9] = test system: tumor cell lines; test: MTS monolayer proliferation assay, combination with 5-azacytidine (cell line not stated); format: cell-based; settings: in combination with 5-azacytidine
# Excerpt: as §1, §2
# as §4, with “empty. HCT116 and MDA-MB-435P cells are suspended in complete media at a density of 3.6×10^3 and 2.1×10^4 cell/ml, respectively, and 190 μl are added per well. Complete medium (200 μl) is added to the top row.” for “empty.”
# as §5
# Using the CalcuSyn program, the Combination Index (CI) is determined by the isobologram equation CI=(D)1/(Dx)1+(D)2/(Dx)2. […] For each compound the % growth values at each dose as determined in the MTS assay is used. […]
# [10] = test system: p21 promoter; test: Transcriptional activation of the p21 promoter; format: cell-based; settings: single agent; sub-micromolar concentrations
# [11] = test system: HCT116 cells; test: Apoptosis in HCT116 cells; format: cell-based, human; settings: single agent, sub micromolar levels, 48 to 72 hours of exposure
# [12] = test system: A549 lung carcinoma xenograft; test: A549 lung carcinoma xenograft model; format: in vivo; settings: single daily intravenous doses 10 to 100 mg/kg
# [13] = HDAI added 24 hr prior to adriamycin
# [14] = adriamycin added 24 hr prior to HDAI
compound,measurement,setting,value
O=C(/C=C/c1ccc(CN(CCO)CCc2c[nH]c3ccccc23)cc1)NO [N-hydroxy-3-[4-[[(2-hydroxyethyl)[2-(1H-indol-3-yl)ethyl]-amino]methyl]phenyl]-2E-2-propenamide],cellular response of normal dermal fibroblasts,[1],predominantly undergo cell-cycle arrest
same,reduction of viability of normal dermal fibroblasts,[1],much higher concentrations and longer times of exposure are required
same,combination index,[2]; [13],~1
same,combined antiproliferative effect (isobologram / combination index),[2]; [13],additive effects
same,combination index,[2]; [14],< 0.1
same,combined antiproliferative effect (isobologram / combination index),[2]; [14],synergistic effects; also recorded: strong synergy; also recorded: very strong synergy
same,combination index,[2]; simultaneous addition,~1
same,combined antiproliferative effect (isobologram / combination index),[2]; simultaneous addition,additive effects
same,tumor growth,[3],reproducibly inhibits tumor growth
same,concentration inhibiting cell growth,[4],sub-micromolar concentrations
same,tumor growth,[5],reproducibly inhibits tumor growth
same,combined antiproliferative effect (isobologram / combination index),[6]; in combination with 5-FU,mainly additive effects; also recorded: additive or weak antagonistic effects
same,combined antiproliferative effect (combination index),[6]; in combination with camptothecin,mainly additive effects; also recorded: additive or weak antagonism; also recorded: additive or weak antagonistic effects
same,levels of histone acetylation,[7]; HCT116 cells treated in culture continuously for 3 to 24 hr,Increased levels of histone acetylation
same,histone acetylation,"[7]; single agent, sub-micromolar concentrations, cells not given",increases histone acetylation
same,acetylated histone H3 levels,[8],increases
same,acetylated histone H4 levels,[8],increases
same,combined antiproliferative effect,[9]; all drug addition schedules,mainly additive effects; also recorded: concentration-dependent effects
same,combined antiproliferative effect,[9]; high inhibitory concentrations (IC50),additive effects
same,combined antiproliferative effect,[9]; low inhibitory concentrations (IC25),antagonistic effects
same,p21 promoter activation,[10],transcriptionally activates the p21 promoter
same,apoptosis,[11],produces apoptosis
same,tumor growth,[12],reproducibly inhibits tumor growth

# Reference: patent US20070123580A1, “Combination of histone deacetylase inhibitors with chemotherapeutic agents” (priority 2003, published 2007)
